Results reported in patent US9593149B2, “Amylin and calcitonin receptor agonist” (Novo Nordisk A/S, priority 2014, dated 2017).
In brackets after ≈: the same amount, converted by molar mass. Numbered stars: 1 amine (or outer) side, 2 acyl side, 3 side chain; on linkers, the order of the positions; unused ones are H or OH. Peptide text beside a SMILES is read from it. * marks the point of attachment. C20 diacid = O=C(O)CCCCCCCCCCCCCCCCCCC(=O)*; C18 diacid = O=C(O)CCCCCCCCCCCCCCCCC(=O)*; γGlu = O=C(O)[C@H](CCC(=O)[*:2])N[*:1]; AEEA = NCCOCCOCC(=O)O

Assay: Assay (IV) determination of solubility
Type: physicochemical
Procedure: Assay (IV)—Determination of Solubility
The mimylin peptide was dissolved in water at ˜500 nmol/ml and mixed 1:1 with a series of buffers (100 mM glycylglycine pH 3.0, 100 mM glycylglycine pH 4.0, 100 mM glycylglycine pH 5.0, 100 mM bistrispropane pH 6.0, 100 mM bistrispropane pH 6.5, 100 mM bistrispropane pH 7.0, 100 mM bistrispropane pH 7.5, 100 mM bistrispropane pH 8.0).

Solubility (pH 3.0)	Solubility (pH 4.0)	Solubility (pH 5.0)	Solubility (pH 6.0)	Solubility (pH 6.5)	Solubility (pH 7.0)	Solubility (pH 7.5)	Solubility (pH 8.0)	solubility at 18 h (pH 3.0) [µM]	solubility at 18 h (pH 4.0) [µM]	solubility at 18 h (pH 5.0) [µM]	Compound
≧200 μM	≧200 μM	≧200 μM	≧200 μM	≧200 μM	≧200 μM	≧200 μM	≧200 μM	–	–	–	CC(C)C[C@H](NC(=O)[C@H](C)NC(=O)[C@H](C)NC(=O)[C@@H](NC(=O)[C@H](CO)NC(=O)[C@H](CC(C)C)NC(=O)[C@H](CCC(=O)O)NC(=O)[C@H](CO)NC(=O)[C@H](C)NC(=O)CC[C@H](NC(=O)CCCCCCCCCCCCCCCCC(=O)O)C(=O)O)[C@@H](C)O)C(=O)NCC(=O)N[C@@H](CCCNC(=N)N)C(=O)N[C@@H](CC(C)C)C(=O)N[C@@H](CO)C(=O)N[C@@H](C)C(=O)N[C@@H](CCC(=O)O)C(=O)N[C@@H](CC(C)C)C(=O)N[C@@H](Cc1cnc[nH]1)C(=O)N[C@@H](CCC(=O)O)C(=O)N[C@@H](CC(C)C)C(=O)N[C@@H](C)C(=O)N[C@H](C(=O)N[C@@H](CC(C)C)C(=O)N1CCC[C@H]1C(=O)N[C@@H](CCCNC(=N)N)C(=O)N[C@H](C(=O)N[C@@H](CCC(=O)O)C(=O)N[C@H](C(=O)NCC(=O)N[C@@H](CO)C(=O)N1CCC[C@H]1C(=O)N[C@@H](CO)C(=O)N1CCC[C@H]1C(N)=O)[C@@H](C)O)[C@@H](C)O)[C@@H](C)O [compound 35, [N-terminal(C18 diacid-gGlu), des1, 30S, 31P]mimylin] ({C18 diacid-γGlu}-ASELSTAALGRLSAELHELATLPRTETGSPSP-NH2)
–	–	–	≧200 μM	≧200 μM	≧200 μM	≧200 μM	≧200 μM	117 (≈ 436 µg/mL)	9 (≈ 33.6 µg/mL)	10 (≈ 37.3 µg/mL)	CC(C)C[C@H](NC(=O)[C@H](CCCNC(=N)N)NC(=O)CNC(=O)[C@H](CC(C)C)NC(=O)[C@@H](NC(=O)[C@H](C)NC(=O)[C@@H](NC(=O)[C@H](CO)NC(=O)[C@@H](NC(=O)[C@H](CCC(=O)O)NC(=O)[C@H](CO)NC(=O)[C@H](C)NC(=O)[C@H](CCC(=O)O)NC(=O)CCCCCCCCCCCCCCCCC(=O)O)C(C)C)[C@@H](C)O)C(C)C)C(=O)N[C@@H](CO)C(=O)N[C@@H](C)C(=O)N[C@@H](CCC(=O)O)C(=O)N[C@@H](CC(C)C)C(=O)N[C@@H](Cc1cnc[nH]1)C(=O)N[C@@H](CCC(=O)O)C(=O)N[C@H](C(=O)N[C@@H](C)C(=O)N[C@H](C(=O)N[C@@H](CC(C)C)C(=O)N1CCC[C@H]1C(=O)N[C@@H](CCCNC(=N)N)C(=O)N[C@H](C(=O)N[C@@H](CCC(=O)O)C(=O)N[C@H](C(=O)NCC(=O)N1CCC[C@H]1C(=O)N[C@@H](CCC(=O)O)C(=O)N[C@@H](CO)C(=O)N1CCC[C@H]1C(N)=O)[C@@H](C)O)[C@@H](C)O)[C@@H](C)O)C(C)C [compound 36, [N-terminal(C18 diacid), 5V, 9V, 20V]mimylin] ({C18 diacid}-EASEVSTAVLGRLSAELHEVATLPRTETGPESP-NH2)
≧200 μM	–	≧200 μM	≧200 μM	≧200 μM	≧200 μM	≧200 μM	≧200 μM	–	18 (≈ 67.9 µg/mL)	–	CC[C@H](C)[C@H](NC(=O)[C@H](C)NC(=O)[C@@H](NC(=O)[C@H](CO)NC(=O)[C@@H](NC(=O)[C@H](CCC(=O)O)NC(=O)[C@H](CO)NC(=O)[C@H](C)NC(=O)[C@H](CCC(=O)O)NC(=O)CCCCCCCCCCCCCCCCC(=O)O)[C@@H](C)CC)[C@@H](C)O)C(=O)N[C@H](C(=O)NCC(=O)N[C@@H](CCCNC(=N)N)C(=O)N[C@@H](CC(C)C)C(=O)N[C@@H](CO)C(=O)N[C@@H](C)C(=O)N[C@@H](CCC(=O)O)C(=O)N[C@@H](CC(C)C)C(=O)N[C@@H](Cc1cnc[nH]1)C(=O)N[C@@H](CCC(=O)O)C(=O)N[C@@H](CC(C)C)C(=O)N[C@@H](C)C(=O)N[C@H](C(=O)N[C@@H](CC(C)C)C(=O)N1CCC[C@H]1C(=O)N[C@@H](CCCNC(=N)N)C(=O)N[C@H](C(=O)N[C@@H](CCC(=O)O)C(=O)N[C@H](C(=O)NCC(=O)N1CCC[C@H]1C(=O)N[C@@H](CCC(=O)O)C(=O)N[C@@H](CO)C(=O)N1CCC[C@H]1C(N)=O)[C@@H](C)O)[C@@H](C)O)[C@@H](C)O)[C@@H](C)CC [compound 37, [N-terminal(C18 diacid), 5I, 9I, 10I]mimylin] ({C18 diacid}-EASEISTAIIGRLSAELHELATLPRTETGPESP-NH2)
≧200 μM	≧200 μM	≧200 μM	≧200 μM	≧200 μM	≧200 μM	≧200 μM	≧200 μM	–	–	–	CC(C)C[C@H](NC(=O)[C@H](CCC(=O)O)NC(=O)[C@H](Cc1cnc[nH]1)NC(=O)[C@H](CC(C)C)NC(=O)[C@H](CCC(=O)O)NC(=O)[C@H](C)NC(=O)[C@H](CO)NC(=O)[C@H](CC(C)C)NC(=O)[C@H](CCCNC(=N)N)NC(=O)CNC(=O)[C@H](CC(C)C)NC(=O)[C@@H](NC(=O)[C@H](C)NC(=O)[C@@H](NC(=O)[C@H](CO)NC(=O)[C@H](CC(C)C)NC(=O)[C@@H]1CCCN1C(=O)[C@@H]1CCCN1C(=O)[C@H](C)NC(=O)[C@H](CCC(=O)O)NC(=O)CCCCCCCCCCCCCCCCC(=O)O)[C@@H](C)O)C(C)C)C(=O)N[C@@H](C)C(=O)N[C@H](C(=O)N[C@@H](CC(C)C)C(=O)N1CCC[C@H]1C(=O)N[C@@H](CCCNC(=N)N)C(=O)N[C@H](C(=O)N[C@@H](CCC(=O)O)C(=O)N[C@H](C(=O)NCC(=O)N1CCC[C@H]1C(=O)N[C@@H](CCC(=O)O)C(=O)N[C@@H](CO)C(=O)N1CCC[C@H]1C(N)=O)[C@@H](C)O)[C@@H](C)O)[C@@H](C)O [compound 38, [N-terminal(C18 diacid), 3P, 4P, 9V]mimylin] ({C18 diacid}-EAPPLSTAVLGRLSAELHELATLPRTETGPESP-NH2)
≧200 μM	≧200 μM	≧200 μM	≧200 μM	≧200 μM	≧200 μM	≧200 μM	≧200 μM	–	–	–	CC(C)C[C@H](NC(=O)[C@H](CCC(=O)O)NC(=O)[C@H](Cc1cnc[nH]1)NC(=O)[C@H](CC(C)C)NC(=O)[C@H](CCC(=O)O)NC(=O)[C@H](C)NC(=O)[C@H](CO)NC(=O)[C@H](CC(C)C)NC(=O)[C@H](CCCCN)NC(=O)CNC(=O)[C@H](CC(C)C)NC(=O)[C@@H](NC(=O)[C@H](C)NC(=O)[C@@H](NC(=O)[C@H](CO)NC(=O)[C@H](CC(C)C)NC(=O)[C@H](CCC(=O)O)NC(=O)[C@H](CO)NC(=O)[C@H](C)NC(=O)[C@H](CCC(=O)O)NC(=O)CCCCCCCCCCCCCCCCC(=O)O)[C@@H](C)O)C(C)C)C(=O)N[C@@H](C)C(=O)N[C@H](C(=O)N[C@@H](CC(C)C)C(=O)N1CCC[C@H]1C(=O)N[C@@H](CCCCN)C(=O)N[C@H](C(=O)N[C@@H](CCC(=O)O)C(=O)N[C@H](C(=O)NCC(=O)N1CCC[C@H]1C(=O)N[C@@H](CCC(=O)O)C(=O)N[C@@H](CO)C(=O)N1CCC[C@H]1C(N)=O)[C@@H](C)O)[C@@H](C)O)[C@@H](C)O [compound 39, [N-terminal(C18 diacid), 9V, 12K, 25K]mimylin] ({C18 diacid}-EASELSTAVLGKLSAELHELATLPKTETGPESP-NH2)
≧200 μM	≧200 μM	≧200 μM	≧200 μM	≧200 μM	≧200 μM	≧200 μM	≧200 μM	–	–	–	CC(C)C[C@H](NC(=O)[C@H](C)NC(=O)[C@H](C)NC(=O)[C@@H](NC(=O)[C@H](CO)NC(=O)[C@H](CC(C)C)NC(=O)[C@H](CCC(=O)O)NC(=O)[C@H](CO)NC(=O)[C@H](C)NC(=O)COCCOCCNC(=O)COCCOCCNC(=O)CC[C@H](NC(=O)CCCCCCCCCCCCCCCCCCC(=O)O)C(=O)O)[C@@H](C)O)C(=O)NCC(=O)N[C@@H](CCCNC(=N)N)C(=O)N[C@@H](CC(C)C)C(=O)N[C@@H](CO)C(=O)N[C@@H](C)C(=O)N[C@@H](CCC(=O)O)C(=O)N[C@@H](CC(C)C)C(=O)N[C@@H](Cc1cnc[nH]1)C(=O)N[C@@H](CCC(=O)O)C(=O)N[C@@H](CC(C)C)C(=O)N[C@@H](C)C(=O)N[C@H](C(=O)N[C@@H](CC(C)C)C(=O)N1CCC[C@H]1C(=O)N[C@@H](CCCNC(=N)N)C(=O)N[C@H](C(=O)N[C@@H](CCC(=O)O)C(=O)N[C@H](C(=O)NCC(=O)N[C@@H](CO)C(=O)NCC(=O)N[C@@H](CO)C(=O)N1CCC[C@H]1C(N)=O)[C@@H](C)O)[C@@H](C)O)[C@@H](C)O [compound 42, [N-terminal(C20 diacid-gGlu-2xOEG), des1, 30S, 31G]mimylin] ({C20 diacid-γGlu-AEEA-AEEA}-ASELSTAALGRLSAELHELATLPRTETGSGSP-NH2)
≧200 μM	≧200 μM	≧200 μM	≧200 μM	≧200 μM	≧200 μM	≧200 μM	≧200 μM	–	–	–	CC(C)C[C@H](NC(=O)[C@H](C)NC(=O)[C@H](C)NC(=O)[C@@H](NC(=O)[C@H](CO)NC(=O)[C@H](CC(C)C)NC(=O)[C@H](CCC(=O)O)NC(=O)[C@H](CO)NC(=O)[C@H](C)NC(=O)COCCOCCNC(=O)COCCOCCNC(=O)COCCOCCNC(=O)CC[C@H](NC(=O)CCCCCCCCCCCCCCCCCCC(=O)O)C(=O)O)[C@@H](C)O)C(=O)NCC(=O)N[C@@H](CCCNC(=N)N)C(=O)N[C@@H](CC(C)C)C(=O)N[C@@H](CO)C(=O)N[C@@H](C)C(=O)N[C@@H](CCC(=O)O)C(=O)N[C@@H](CC(C)C)C(=O)N[C@@H](Cc1cnc[nH]1)C(=O)N[C@@H](CCC(=O)O)C(=O)N[C@@H](CC(C)C)C(=O)N[C@@H](C)C(=O)N[C@H](C(=O)N[C@@H](CC(C)C)C(=O)N1CCC[C@H]1C(=O)N[C@@H](CCCNC(=N)N)C(=O)N[C@H](C(=O)N[C@@H](CCC(=O)O)C(=O)N[C@H](C(=O)NCC(=O)N[C@@H](CO)C(=O)NCC(=O)N[C@@H](CO)C(=O)N1CCC[C@H]1C(N)=O)[C@@H](C)O)[C@@H](C)O)[C@@H](C)O [compound 43, [N-terminal(C20 diacid-gGlu-3xOEG), des1, 30S, 31G]mimylin] ({C20 diacid-γGlu-AEEA-AEEA-AEEA}-ASELSTAALGRLSAELHELATLPRTETGSGSP-NH2)
